From patent publication US20160128980A1, “METHODS OF TREATING CKD USING PREDICTORS OF FLUID RETENTION” (AbbVie Inc., priority 2014, published 2016)
Read-outs that look alike come from different tables or passages of the source.

What was measured:
[1] = test system: congestive heart failure (CHF); conditions: within the first 4-8 weeks; thought to be a consequence of fluid retention; cited from earlier work
[2] = 1-10 mg/day; cited from earlier work
[3] = test system: individuals with a systolic blood pressure above 140 mmHg receiving at least three blood-pressure-lowering drugs; conditions: cited from earlier work
CHF = conditions: at higher doses; cited from earlier work
[4] = cited from earlier work
patients with acute CHF = conditions: intravenous, doses greater than 1 mg/hr; cited from earlier work
[5] = test system: participants with type 2 diabetes and overt diabetic nephropathy; conditions: cited from earlier work; for median decrease of UACR: median follow-up 4 months, placebo 9.7%; for discontinuation of trial medications due to adverse events: placebo 1.5%; for deaths: placebo 12
[6] = test system: patients with type 2 diabetic nephropathy; assay: Two Phase 2b 12 week placebo-controlled studies of atrasentan in residual albuminuria; assay type: in vivo, human; conditions: for Linear regression coefficient, hemoglobin response: hemoglobin change after two weeks; for Linear regression coefficient, weight response: weight change after two weeks
Experimental: Two Phase 2b, multicenter, prospective, randomized, double-blinded, placebo-controlled, 12 week studies were conducted to evaluate the efficacy and safety of atrasentan compared to placebo in reducing residual albuminuria. Atrasentan was studied at doses of 0.75 mg QD and 1.25 mg QD. The study methodologies were the identical, but for the location. (NCT01356849 in U.S., Canada, and Taiwan; NCT10424319 in Japan). Additional clinical details can be found in Kohan, D E, et al., “Predictors of Atrasentan-Associated Fluid Retention and Change in Albuminuria in Patients with Diabetic Nephropathy,” Clin J Am Soc Nephrol, September 2015, 10:1568-1574, which is hereby incorporated by reference in its entirety. Observations in body weight changes and hemoglobin changes may be used as surrogate markers for changes in fluid retention. Demographic parameters were similar between the placebo and atrasentan 0.75 and 1.25 mg/d arms (Table 1). The following abbreviations are used within the table: BNP=B-type natriuretic peptide; DBP=diastolic blood pressure; eGFR=estimated glomerular filtration rate; HbA1c=glycated hemoglobin; RAS=renin-angiotensin system; SBP=systolic blood pressure; UACR=urinary albumin to creatinine ratio. Table 1 is reproduced in part from de Zeeuw D, et al., The endothelin antagonist atrasentan lowers residual albuminuria in patients with type 2 diabetic nephropathy. J Am Soc Nephrol 25: 1083-1093, 2014, which is hereby incorporated by reference in its entirety. Values within Table 1 are mean±standard deviation unless stated otherwise. The abbreviations used in Table 3 include BP=blood pressure; eGFR=estimated glomerular filtration rate; HbA1c=glycated hemoglobin; HOMA=homeostatic model assessment. The following covariates were included in the initial backward selection model: treatment assignment, age, gender, body weight, Hb, eGFR, albuminuria, systolic blood pressure (BP), eGFR, log transformed homeostatic metabolic assessment (HOMA) product, log-transformed B-type natriuretic peptide (BNP), thiazide and loop-diuretic use. Systolic blood pressure and atrasentan dose were not included in the final logistic regression models for body weight and hemoglobin, respectively.

[7] = test system: subjects with type 1 diabetes and proteinuria not receiving RAS inhibitors; assay: Study M96-499, Phase 2 cross-over study of atrasentan; assay type: in vivo, human
Text: The most commonly experienced treatment-emergent adverse events in the atrasentan group were peripheral edema (64%), pulmonary edema (18%), rhinitis (36%) and headache (18%), whereas in the placebo group there was no peripheral edema, but there were reports of rhinitis (11%) and headache (56%).

[8] = test system: subjects with type 2 diabetes and albuminuria on stable doses of RAS inhibitors; assay: Study M10-815, Phase 2a placebo controlled study of atrasentan; assay type: in vivo, human; conditions: for reduction in the mean UACR from baseline: placebo 11%; for subjects with mild to moderate peripheral edema: placebo 9%
Experimental: In a Phase 2a double-blind, randomized, placebo controlled study (referred to herein as M10-815), subjects with type 2 diabetes and albuminuria who were on stable doses of RAS inhibitors were administered atrasentan HCl at 0.25, 0.75 or 1.75 mg QD for 8 weeks.

[9] = after 14 weeks, 50, 100 or 300 mg once daily, non-dose-dependent
[10] = 0.75 mg/day vs. placebo, after two weeks
[11] = 0.75 mg/day, Recovery (30 days)
[12] = 1.25 mg/day vs. placebo, after two weeks
[13] = 1.25 mg/day, Recovery (30 days)

In the case of `COc1ccccc1Oc1c(NS(=O)(=O)c2ccc(C(C)(C)C)cc2)nc(-c2ncccn2)nc1OCCO` [Bosentan], the “worsening of congestive heart failure” value [1] is listed as “associated with early worsening of congestive heart failure (CHF)”.
For `COC(c1ccccc1)(c1ccccc1)[C@H](Oc1nc(C)cc(C)n1)C(=O)O` [Ambrisentan], the edema incidence [2] is listed as 25%.
For `COc1cc(OC)nc(O[C@H](C(=O)O)C(OC)(c2ccccc2)c2ccccc2)n1` [darusentan], the “reduction in diastolic clinic seated blood pressure compared with placebo” value [3, 9] is listed as ~5 mmHg, the “reduction in systolic clinic seated blood pressure compared with placebo” value [3, 9] is listed as “about 10 mmHg” and the “patients discontinuing because of fluid retention or peripheral edema” value ([3]; combined darusentan treatment groups) is listed as 2%. For the same molecule, the “patients with edema and/or fluid retention reported” value ([3]; darusentan groups combined, placebo 14%) was 27%, the “patients with cardiac-related serious adverse events” value ([3]; patients taking darusentan) was “five” and the “worsening of CHF” value (CHF) was “tended to worsen CHF”.
In the case of `Cc1cc2c(cc1CC(=O)c1sccc1S(=O)(=O)Nc1onc(C)c1Cl)OCO2` [Sitaxsentan], the edema ([4]; higher doses) is listed as “significantly causes edema” and the edema ([4]; lower doses (100 or 300 mg daily)) is listed as “less tendency to cause edema”.
For `COc1ccccc1Oc1c(NS(=O)(=O)c2ccc(C(C)C)cn2)nc(-c2ccnc(-c3nnn[nH]3)c2)nc1OCCO` [tezosentan], the urine output (patients with acute CHF) is given as “reduced urine output”.
For `COc1ccccc1Oc1c(NS(=O)(=O)c2ccc(C)cn2)nc(-c2ccncc2)nc1OC` [avosentan], the “median decrease of UACR” value ([5]; 25 mg) is given as 44%, the “discontinuation of trial medications due to adverse events” value ([5]; 25 mg) is given as 19.69% and the deaths ([5]; 25 mg) is given as 21. For the same molecule, the “median decrease of UACR” value ([5]; 50 mg) was 49%, the “discontinuation of trial medications due to adverse events” value ([5]; 50 mg) was 18.2% and the deaths ([5]; 50 mg) was 17.
In the case of `CCCCN(CCCC)C(=O)CN1C[C@H](c2ccc3c(c2)OCO3)[C@@H](C(=O)O)[C@@H]1c1ccc(OC)cc1` [Atrasentan, (2R,3R,4S)-4-(1,3-benzodioxol-5-yl)-1-[2-(dibutylamino)-2-oxoethyl]-2-(4-methoxyphenyl)pyrrolidine-3-carboxylic acid], the “Logistic regression association with ≧1.3 g/dl fall in Hb” value [6, 10] is reported as “no significant association”, the “Logistic regression odds ratio (95% CI), ≧2 kg weight gain” value [6, 10] is reported as 3.0 (1.0-8.5) and the “Linear regression coefficient, hemoglobin response” value ([6]; 0.75 mg/day vs. placebo) is reported as −0.7. For the same molecule, the “Linear regression coefficient, weight response” value ([6]; 0.75 mg/day vs. placebo) was 0.8, the “BNP, median” value ([6]; 0.75 mg/day, Baseline) was 33.0 pg/mL and the “Hemoglobin, Mean (SD)” value ([6]; 0.75 mg/day, Baseline) was 12.9 (1.5) g/dL. For the same molecule, the “UACR, median” value ([6]; 0.75 mg/day, Baseline) was 878 mg/g, the “Weight, Mean (SD)” value ([6]; 0.75 mg/day, Baseline) was 87.1 (22.1) kg and the “Hemoglobin, Mean (SD)” value [6, 11] was 12.4 (1.5) g/dL. The “UACR, median” value [6, 11] was 1051 mg/g, the “Weight, Mean (SD)” value [6, 11] was 85 (23) kg and the “Hemoglobin, Mean (SD)” value ([6]; 0.75 mg/day, Week 2) was 12.0 (1.5) g/dL. For the same molecule, the “UACR, median” value ([6]; 0.75 mg/day, Week 2) was 573 mg/g, the “Weight, Mean (SD)” value ([6]; 0.75 mg/day, Week 2) was 88.0 (22.2) kg and the “UACR, median” value ([6]; 0.75 mg/day, Week 6) was 636 mg/g. The “Weight, Mean (SD)” value ([6]; 0.75 mg/day, Week 6) was 87.3 (21.8) kg, the “BNP, median” value ([6]; 0.75 mg/day, Week 12) was 33.1 pg/mL and the “Hemoglobin, Mean (SD)” value ([6]; 0.75 mg/day, Week 12) was 11.8 (1.6) g/dL. For the same molecule, the “UACR, median” value ([6]; 0.75 mg/day, Week 12) was 521 mg/g, the “Weight, Mean (SD)” value ([6]; 0.75 mg/day, Week 12) was 87.3 (22.3) kg and the “Logistic regression odds ratio (95% CI), ≧1.3 g/dL hemoglobin fall” value [6, 12] was 5.6 (2.5-12.7). The “Logistic regression odds ratio (95% CI), ≧2 kg weight gain” value [6, 12] was 6.6 (2.3-18.6), the “Linear regression coefficient, hemoglobin response” value ([6]; 1.25 mg/day vs. placebo) was −1.0 and the “Linear regression coefficient, weight response” value ([6]; 1.25 mg/day vs. placebo) was 1.3. For the same molecule, the “BNP, median” value ([6]; 1.25 mg/day, Baseline) was 33.5 pg/mL, the “Hemoglobin, Mean (SD)” value ([6]; 1.25 mg/day, Baseline) was 12.9 (1.8) g/dL and the “UACR, median” value ([6]; 1.25 mg/day, Baseline) was 826 mg/g. The “Weight, Mean (SD)” value ([6]; 1.25 mg/day, Baseline) was 88.3 (18.4) kg, the “Hemoglobin, Mean (SD)” value [6, 13] was 12.5 (1.9) g/dL and the “UACR, median” value [6, 13] was 727 mg/g. The “Weight, Mean (SD)” value [6, 13] was 88 (19) kg, the “Hemoglobin, Mean (SD)” value ([6]; 1.25 mg/day, Week 2) was 11.8 (1.8) g/dL and the “UACR, median” value ([6]; 1.25 mg/day, Week 2) was 515 mg/g. For the same molecule, the “Weight, Mean (SD)” value ([6]; 1.25 mg/day, Week 2) was 89.4 (18.7) kg, the “UACR, median” value ([6]; 1.25 mg/day, Week 6) was 461 mg/g and the “Weight, Mean (SD)” value ([6]; 1.25 mg/day, Week 6) was 89.6 (19.0) kg. The “BNP, median” value ([6]; 1.25 mg/day, Week 12) was 37.0 pg/mL, the “Hemoglobin, Mean (SD)” value ([6]; 1.25 mg/day, Week 12) was 11.8 (1.8) g/dL and the “UACR, median” value ([6]; 1.25 mg/day, Week 12) was 470 mg/g. The “Weight, Mean (SD)” value ([6]; 1.25 mg/day, Week 12) was 89.0 (19.2) kg, the body weight increase ([6]; after 2 weeks of treatment, placebo decreased approximately 1 kg) was “approximately 1 kg” and the “hemoglobin (Hb) decrease” value ([6]; both atrasentan groups after 2 weeks, persisted throughout treatment) was “approximately 1 g/dl”. The “Hb after treatment discontinuation” value ([6]; by 30 days after treatment discontinuation) was “normalized”, the “change in B-natriuretic peptide (BNP)” value ([6]; patients who received atrasentan) was “no significant change” and the “mean arterial blood pressure (BP)” value ([7]; 5 mg QD) was “reduced”. For the same molecule, the “pulmonary edema, treatment-emergent adverse event” value ([7]; 5 mg QD) was 18%, the “peripheral edema, treatment-emergent adverse event” value ([7]; 5 mg QD, none in placebo) was 64% and the “rhinitis, treatment-emergent adverse event” value ([7]; 5 mg QD, placebo 11%) was 36%. For the same molecule, the “headache, treatment-emergent adverse event” value ([7]; 5 mg QD, placebo 56%) was 18%, the “reduction in urinary albumin excretion” value ([7]; 5 mg daily (QD)) was 65% and the “reduction in the mean UACR from baseline” value ([8]; 0.25 mg QD for 8 weeks, non-significant, P=0.291) was 21%. The “subjects with mild to moderate peripheral edema” value (from here on “subjects with mild”) ([8]; 0.25 mg QD) was 14%, the “reduction in the mean UACR from baseline” value ([8]; 0.75 mg QD for 8 weeks, 1-sided P=0.023) was 42% and the “subjects with mild” value ([8]; 0.75 mg QD) was 18%. The “reduction in the mean UACR from baseline” value ([8]; 1.75 mg QD for 8 weeks, 1-sided P=0.073) was 35% and the “subjects with mild” value ([8]; 1.75 mg QD) was 46%.
